The text below walks through data of patent publication US7262185B2, “Benzazepine derivative, process for producing the same, and use” (Takeda Chemical Industries Ltd., priority 2001, dated 2007).

Molecules are shown by their SMILES.

The term melting point denotes the temperature, or range, at which the solid turns liquid. The molecule `CCCCOCCOc1ccc(-c2ccc3c(c2)C=C(C(=O)Nc2ccc(C(O)c4cccc(C)[n+]4[O-])cc2)CCN3)cc1` (stereo not shown) [Compound 97, 7-[4-(2-butoxyethoxy)phenyl]-N-[4-[hydroxy(6-methyl-1-oxidopyridin-2-yl)methyl]phenyl]-2,3-dihydro-1H-1-benzazepine-4-carboxamide] registered a melting point of 175 to 177 °C.

`CCCCOCCOc1ccc(-c2ccc3c(c2)C=C(C(=O)Nc2ccc([S+]([O-])Cc4nccn4CCCC(=O)OCC)cc2)CCN3CC(C)C)cc1` (stereo not shown) [Compound 414, ethyl 4-[2-[[[4-[[[7-[4-(2-butoxyethoxy)phenyl]-1-isobutyl-2,3-dihydro-1H-1-benzazepine-4-yl]carbonyl]amino]phenyl]sulfinyl]methyl]-1H-imidazol-1-yl]butanoate] gave a melting point of 134 to 136 °C.

Consider `CCCCOCCOc1ccc(-c2ccc3c(c2)C=C(C(=O)Nc2ccc(C(O)c4cc(C)cc[n+]4[O-])cc2)CCN3)cc1` (stereo not shown) [Compound 1, 7-[4-(2-butoxyethoxy)phenyl]-N-[4-[hydroxy(4-methyl-1-oxidopyridin-2-yl)methyl]phenyl]-2,3-dihydro-1H-1-benzazepine-4-carboxamide], for which the melting point is 198 to 201 °C (dec.).

Consider `CCCCOCCOc1ccc(-c2ccc3c(c2)C=C(C(=O)Nc2ccc(N(C)Cc4nncn4CCC)cc2)CCN3CCC)cc1` [Compound 151, 7-[4-(2-butoxyethoxy)phenyl]-N-[4-[methyl(4-propyl-4H-1,2,4-triazol-3-ylmethyl)amino]phenyl]-1-propyl-2,3-dihydro-1H-benzazepine-4-carboxamide], for which the melting point was in the range of 131 to 133 °C.

`CCCCOCCOc1ccc(-c2ccc3c(c2)C=C(C(=O)Nc2ccc([C@H](O)c4cccc[n+]4[O-])cc2)CCN3CCC)cc1` [Compound 83, 7-[4-(2-butoxyethoxy)phenyl]-N-[4-[(S)-hydroxy(1-oxidopyridin-2-yl)methyl]phenyl]-1-propyl-2,3-dihydro-1H-1-benzazepine-4-carboxamide] returned a melting point of 87 to 89 °C.

Molecule `CCCCOCCOc1ccc(-c2ccc3c(c2)C=C(C(=O)Nc2ccc(SCc4nccn4CCCC(=O)OCC)cc2)CCN3CC(C)C)cc1` [Compound 413, ethyl 4-[2-[[[4-[[[7-[4-(2-butoxyethoxy)phenyl]-1-isobutyl-2,3-dihydro-1H-1-benzazepin-4-yl]carbonyl]amino]phenyl]thio]methyl]-1H-imidazol-1-yl]butanoate] had a melting point of 103 to 104 °C.

On to `CCCCOCCOc1ccc(-c2ccc3c(c2)C=C(C(=O)Nc2ccc([C@H](O)c4cccc[n+]4[O-])cc2)CCN3C(=O)C(F)(F)F)cc1` [Compound 80, 7-[4-(2-butoxyethoxy)phenyl]-N-[4-[(S)-hydroxy(1-oxidopyridin-2-yl)methyl]phenyl]-2,3-dihydro-1-trifluoroacetyl-1H-1-benzazepine-4-carboxamide], for which the melting point was in the range of 107 to 110 °C.

`CCCCOCCOc1ccc(-c2ccc3c(c2)C=C(C(=O)Nc2ccc([C@H](O)c4cccc[n+]4[O-])cc2)CCN3CC2CC2)cc1` [Compound 84, 7-[4-(2-butoxyethoxy)phenyl]-1-cyclopropylmethyl-N-[4-[(S)-hydroxy(1-oxidopyridin-2-yl)methyl]phenyl]-2,3-dihydro-1H-1-benzazepine-4-carboxamide] yielded a melting point of 85 to 88 °C.

As to `CCCCOCCOc1ccc(-c2ccc3c(c2)C=C(C(=O)Nc2ccc(/C(Cc4nccn4CCC)=N/O)cc2)CCN3CC(C)C)cc1` [Compound 450, 7-[4-(2-butoxyethoxy)phenyl]-N-[4-((1E)-N-hydroxy-2-(1-propylimidazol-2-yl)ethaneimidoyl)phenyl]-1-isobutyl-2,3-dihydro-1H-1-benzazepine-4-carboxamide], the melting point is 153.5 to 154.5 °C.

Molecule `CCCCOCCOc1ccc(-c2ccc3c(c2)C=C(C(=O)Nc2ccc(CCCn4cnnc4)cc2)CCN3CCC)cc1` [Compound 64, 7-[4-(2-butoxyethoxy)phenyl]-1-propyl-N-[4-[3-(4H-1,2,4-triazol-4-yl)propyl]phenyl]-2,3-dihydro-1H-1-benzazepine-4-carboxamide] gave a melting point of 191 to 194 °C.

`CCCCOCCOc1ccc(-c2ccc3c(c2)C=C(C(=O)Nc2ccc([S+]([O-])Cc4ncnn4C)cc2)CCN3CC(C)C)cc1` (stereo not shown) [Compound 124, 7-[4-(2-butoxyethoxy)phenyl]-N-[4-(1-methyl-1H-1,2,4-triazol-5-ylmethylsulfinyl)phenyl]-1-isobutyl-2,3-dihydro-1H-1-benzazepine-4-carboxamide] returned a melting point of 135 to 138 °C.

As to `CCCCOCCOc1ccc(-c2ccc3c(c2)C=C(C(=O)Nc2ccc(C(O)c4cccc[n+]4[O-])c(C)c2)CCN3)cc1` (stereo not shown) [Compound 7, 7-[4-(2-butoxyethoxy)phenyl]-N-[4-[hydroxy(1-oxidopyridin-2-yl)methyl]-3-methylphenyl]-2,3-dihydro-1H-1-benzazepine-4-carboxamide], the melting point was 179 to 182 °C (dec.).

Consider `CCCCOCCOc1ccc(-c2ccc3c(c2)C=C(C(=O)Nc2ccc(CC(=O)c4nccn4CCC)cc2)CCN3CC(C)C)cc1` [Compound 451, 7-[4-(2-butoxyethoxy)phenyl]-1-isobutyl-N-[4-(2-oxo-2-(1-propylimidazol-2-yl)ethyl)phenyl]-2,3-dihydro-1H-1-benzazepine-4-carboxamide], for which the melting point lay within 136.5 to 138 °C.

For `CCCCOCCOc1ccc(-c2ccc3c(c2)C=C(C(=O)Nc2ccc(S(=O)(=O)Cc4ncn(C)n4)cc2)CCN3CC(C)C)cc1` [Compound 127, 7-[4-(2-butoxyethoxy)phenyl]-1-isobutyl-N-[4-(1-methyl-1H-1,2,4-triazol-3-ylmethylsulfonyl)phenyl]-2,3-dihydro-1H-benzazepine-4-carboxamide], the melting point was 205 to 208 °C.

Molecule `CCCCOCCOc1ccc(-c2ccc3c(c2)C=C(C(=O)Nc2ccc(N(C)Cc4nncn4CCC)cc2)CCN3CC(C)C)cc1` [Compound 150, 7-[4-(2-butoxyethoxy)phenyl]-1-isobutyl-N-[4-[methyl(4-propyl-4H-1,2,4-triazol-3-ylmethyl)amino]phenyl]-2,3-dihydro-1H-benzazepine-4-carboxamide] registered a melting point of 134 to 136 °C.

As for `CCCCOCCOc1ccc(-c2ccc3c(c2)C=C(C(=O)Nc2ccc([S+]([O-])Cc4cncn4CC(N)=O)cc2)CCN3CC(C)C)cc1` (stereo not shown) [Compound 430, N-[4-[[[1-(2-amino-2-oxoethyl)-1H-imidazol-5-yl]methyl]sulfinyl]phenyl]-7-[4-(2-butoxyethoxy)phenyl]-1-isobutyl-2,3-dihydro-1H-1-benzazepine-4-carboxamide], the melting point lay in the range of 123 to 125 °C.

As for `CCCCOCCOc1ccc(-c2ccc3c(c2)C=C(C(=O)Nc2ccc([C@H](O)c4ccccn4)cc2)CCN3C=O)cc1` [Compound 75, 7-[4-(2-butoxyethoxy)phenyl]-1-formyl-N-[4-[(S)-hydroxy(2-pyridyl)methyl]phenyl]-2,3-dihydro-1H-1-benzazepine-4-carboxamide], the melting point was in the range of 130 to 134 °C.

Turning to `CCCCOCCOc1ccc(-c2ccc3c(c2)C=C(C(=O)Nc2ccc(CSc4nncs4)cc2)CCN3CC(C)C)cc1` [Compound 115, 7-[4-(2-butoxyethoxy)phenyl]-N-[4-(1,3,4-thiadiazol-2-ylthiomethyl)phenyl]-1-isobutyl-2,3-dihydro-1H-1-benzazepine-4-carboxamide], the melting point was 77 to 79 °C.

Molecule `CCCCOCCOc1ccc(-c2ccc3c(c2)C=C(C(=O)Nc2ccc([S+]([O-])Cc4ncn(C)n4)cc2)CCN3CC(C)C)cc1` (stereo not shown) [Compound 126, 7-[4-(2-butoxyethoxy)phenyl]-1-isobutyl-N-[4-(1-methyl-1H-1,2,4-triazol-3-ylmethylsulfinyl)phenyl]-2,3-dihydro-1H-benzazepine-4-carboxamide] gave a melting point of 112 to 114 °C.

The molecule `CCCCOCCOc1ccc(-c2ccc3c(c2)C=C(C(=O)Nc2ccc(C(O)c4cc(C)cc[n+]4[O-])c(OCC)c2)CCN3)cc1` (stereo not shown) [Compound 11, 7-[4-(2-butoxyethoxy)phenyl]-N-[3-ethoxy-4-[hydroxy(4-methyl-1-oxidopyridin-2-yl)methyl]phenyl]-2,3-dihydro-1H-1-benzazepine-4-carboxamide] showed a melting point of 110 to 115 °C.

On to `CCCCOCCOc1ccc(-c2ccc3c(c2)C=C(C(=O)Nc2ccc([C@H](O)c4cccc[n+]4[O-])cc2)CCN3Cc2nccs2)cc1` [Compound 86, 7-[4-(2-butoxyethoxy)phenyl]-N-[4-[(S)-hydroxy(1-oxidopyridin-2-yl)methyl]phenyl]-1-(thiazol-2-ylmethyl)-2,3-dihydro-1H-1-benzazepine-4-carboxamide], for which the melting point fell in the range of 164 to 165 °C.

On to `CCCCOCCOc1ccc(-c2ccc3c(c2)C=C(C(=O)Nc2ccc(C(O)c4cccc(C)[n+]4[O-])cc2)CCN3CC(C)C)cc1` (stereo not shown) [Compound 98, 7-[4-(2-butoxyethoxy)phenyl]-N-[4-[hydroxy(6-methyl-1-oxidopyridin-2-yl)methyl]phenyl]-1-isobutyl-2,3-dihydro-1H-1-benzazepine-4-carboxamide], for which the melting point is 114 to 116 °C.

`CCCCOCCOc1ccc(-c2ccc3c(c2)C=C(C(=O)Nc2ccc(C(O)c4ccc(C)cn4)cc2)CCN3C(=O)C(F)(F)F)cc1` (stereo not shown) [Compound 103, 7-[4-(2-butoxyethoxy)phenyl]-N-[4-[hydroxy(5-methylpyridin-2-yl)methyl]phenyl]-1-trifluoroacetyl-2,3-dihydro-1H-1-benzazepine-4-carboxamide] gave a melting point of 110 to 113 °C.

`CCCCOCCOc1ccc(-c2ccc3c(c2)C=C(C(=O)Nc2ccc(SCc4n[nH]c(=O)n4CCC)cc2)CCN3CC(C)C)cc1` [Compound 65, 7-[4-(2-butoxyethoxy)phenyl]-1-isobutyl-N-[4-[(4-propyl-1H-1,2,4-triazol-5-on-3-yl)methylthio]phenyl]-2,3-dihydro-1H-1-benzazepine-4-carboxamide]: the melting point fell in the range of 98 to 101 °C.

`CCCCOCCOc1ccc(-c2ccc3c(c2)C=C(C(=O)Nc2ccc(SCc4cncn4CC(N)=O)cc2)CCN3CC(C)C)cc1` [Compound 429, N-[4-[[[1-(2-amino-2-oxoethyl)-1H-imidazol-5-yl]methyl]thio]phenyl]-7-[4-(2-butoxyethoxy)phenyl]-1-isobutyl-2,3-dihydro-1H-1-benzazepine-4-carboxamide]: the melting point is 152 to 154 °C.
